{
  "source": "patent US5084481A",
  "about": "“Method of treating inflammatory diseases with pharmaceutical composition containing dihydrolipoic acid as active substance” (Asta Pharma Aktiengesellschaft, priority 1989, dated 1992)",
  "key": {"[1]": {"experiment": "Acetic acid writhing pain test in mouse", "assay_type": "in vivo", "conditions": "for ED50: read-out: analgesically effective ED50, acetic acid writhing test", "excerpt": "Acetic acid test (Writhing test) in the mouse\nIn the acetic acid test after KOSTER et al. (Fed. proc., Vol. 18, page 412 (1959)) the pain irritation is triggered by an intraperitoneal injection of 1% acetic acid. The pain reaction is expressed in the form of a characteristic stretching of the animals (\"writhing syndrome\") which continues at irregular intervals for some time after the acetic acid injection. The dose-related inhibition of the frequency of writhing movements as compared to an untreated control group is expressed as an analgesic effect in percent. Evaluation is effected by determining the ED50 (linear regression method). The ED50 is the dose in mg/kg which achieves a 50% inhibition in the writhing syndrome.\nThe characteristic feature of the acetic acid test is that it not only determines the effect of strong, centrally acting analgesics, but also that of predominantly peripherally acting analgesic, antipyretic and anti-inflammatory agents such as phenylbutazone, indomethacin, etc."}, "[2]": {"experiment": "Randall Selitto inflammation pain test in rat", "assay_type": "in vivo", "conditions": "for ED50: 0.5 h, pain threshold 30 minutes after substance, read-out: analgesically effective ED50, Randall Selitto test", "protocol": "The following is a brief description of the pharmacological test methods specially mentioned herein: Randall Selitto Test (inflammatory pain in the rat):\nOn the basis of the method after RANDALL and SELITTO (L.O. Randall and J. Selitto, Arch. int. Pharmacodyn., Vol. 111, pages 409-418 (1957)) 0.1 ml of a 20% suspension of brewer's yeast (in demineralized water) is injected subplantar into the right rear paw of rats. After 21/2 hours the test substances are given and 30 minutes later the pain threshold is measured as a pressure (in grams) on the inflamed paw using an algesimeter (equipment by Ugo BASILE, Milan/Italy). The criterion is the defense reaction of the animals in pulling the paw away and/or escaping from the technician's grip. The effect of the substance is determined by the increase in the pain threshold compared to an untreated control group. The course of the experiment differs from the original method in that the substances are only administered 21/2 hours after appearance of the edema and not given simultaneously therewith. This is done in order to prevent the development of the edema being inhibited by any possible anti-inflammatory action and the analgesia being masked or feigned.\nThe ED50 is determined using the linear regression method. The ED50 is then the dose in mg/kg for which a 50% analgesic effect is calculated."}, "[3]": {"experiment": "Carragheen-induced edema test in the rat (anti-inflammatory effect)", "assay_type": "in vivo", "conditions": "for ED50: read-out: anti-inflammatorally effective ED50, carragheen edema", "protocol": "Carragheen-edema test for anti-inflammatory effect\nThe examination is carried out in carragheen-induced edema of rat paw on the basis of the method of MoRSDORF and colleagues (Arch. int. Pharmacodyn. 192, 111-127 (1971)). The anti-inflammatory effect is for example quoted as edema inhibition in percent as compared to the untreated control group. […]. The substance is given orally or intraperitoneally […]. The ED50 is the dose in mg/kg at which there is a 50% inhibition of the paw edema."}, "[4]": {"experiment": "PAF-acether edema in the rat", "assay_type": "in vivo", "conditions": "for % effect, PAF-acether edema: rat, given 0.5 hours before triggering, edema measured 1 hour thereafter", "protocol": "(Platelet Aggregating Factor)-acether-edema in the rat\nThe principle of this method is to provoke a locally limited edema or inflammation in the rat paw by means of the subplantar injection of 2 μg of PAF acether per animal. The investigations were carried out on the basis of the method of SWINGLE and REITER (Agents and actions, 18, 358-365, (1986)). The animals received the test substances 0.5 hours before triggering of the edema. The edema was measured 1 hour thereafter. The ED50 was calculated using the linear regression method."}, "[5]": {"experiment": "Acute toxicity in the mouse (LD50, Litchfield and Wilcoxon)", "conditions": "in vivo, oral application", "protocol": "The acute toxicity of the invention in the mouse (expressed as the LD50 mg/kg; method of LITCHFIELD and WILCOXON, J. Pharmacol. Exp. Ther. 95:99, (1949)) is for example above 200 mg/kg in the case of oral application."}, "[6]": {"experiment": "Cytoprotective effect in animal trials", "conditions": "in vivo"}, "[7]": {"experiment": "Comparison of the effect with alpha-lipoic acid and S-adenosyl-L-methionine (animal experiments)", "assay_type": "in vivo"}, "[8]": {"experiment": "Further investigatory models (MgSO4 writhing, adjuvans arthritis, mouse ear edema, arthrosis, intestinal ulceration, colitis, ethanol ulcer, UV-B radiation in healthy subjects)", "assay_type": "in vivo, rat, chicken", "conditions": "models listed, stated collectively", "excerpt": "MgSO4 writhing test in the mouse after GYIRES et al. (Arch. int. pharmacodyn. therap. 267, 131-140, 1984)\nAdjuvans arthritis in the rat after NEWBOULD (Brit. J. Pharmacol. 21, 127-136, 1963)\nTPA or arachidonic acid-induced mouse ear edema after YOUNG et al. (J. Invest. Dermatol. 80, 48-52, 1983)\nNa-mono-iodine acetate-induced arthrosis in rats or chickens after KALBHEN, in: Arthrosis deformans, Eular-Verlag, Basel/Switzerland, 1982\nTPA-induced arthrosis in rats after WEISCHER (Agents and Actions 23, 1/2, 1988)\nIntestinal ulceration in rats after DEL SOLDATO (Agents and Actions 16, 393-396, 1985)\nColitis model in the rat after WEISCHER (Agents and Actions, 1988)\nEthanol ulcer model in the rat (determination of, for example, a cytoprotective effect)\nThe effect of topical DL-dihydrolipoic acid in the complex of symptoms induced by UV-B radiation in healthy subjects"}, "[9]": {"conditions": "rats and mice; solutions in water or physiological sodium chloride containing venom and substance; cited from earlier work"}},
  "note": "“Also recorded” adds a separate entry of the source.",
  "data": [
    {"smiles": "O=C(O)CCCCC(S)CCS", "note": "(racemic) [dihydrolipoic acid, 6,8-dimercapto-octanoic acid]", "values": [
      {"measurement": "analgesic effect (in words)", "setting": "[1]; acetic acid writhing pain test in mouse", "result": "good analgesic effect"},
      {"measurement": "ED50", "setting": "[1]; ip, intraperitoneally, mouse", "result": 4.6, "unit": "mg/kg"},
      {"measurement": "analgesic effect superior to that of alpha-lipoic acid by a factor", "setting": "[1]; peroral application, acetic acid writhing, mouse", "result": "at least 1.9"},
      {"measurement": "ED50", "setting": "[1]; po, per os, mouse", "result": 26.8, "unit": "mg/kg"},
      {"measurement": "analgesic effect (in words)", "setting": "[2]; Randall Selitto inflammation pain test in rat", "result": "good analgesic effect"},
      {"measurement": "ED50", "setting": "[2]; ip, intraperitoneally, rat", "result": 0.14, "unit": "mg/kg"},
      {"measurement": "analgesic effect superior to that of alpha-lipoic acid by a factor", "setting": "[2]; peroral application, Randall Selitto, rat", "result": "≥ 2.8"},
      {"measurement": "ED50", "setting": "[2]; po, per os, rat", "result": 16.2, "unit": "mg/kg"},
      {"measurement": "minimal effective dose", "setting": "[2]; po, per os, rat, read-out: minimum dose to produce an analgesic effect in the Randall Selitto pain test", "result": 5, "unit": "mg/kg"},
      {"measurement": "anti-inflammatory activity (in words)", "setting": "[3]; carragheen-induced edema in the rat", "result": "good anti-inflammatory activity"},
      {"measurement": "ED50", "setting": "[3]; ip, intraperitoneally, rat", "result": 7.7, "unit": "mg/kg"},
      {"measurement": "anti-inflammatory activity superior to that of alpha-lipoic acid by a factor", "setting": "[3]; peroral application, carragheen edema, rat", "result": "at least 1.9"},
      {"measurement": "ED50", "setting": "[3]; po, per os, rat", "result": 26, "unit": "mg/kg"},
      {"measurement": "minimal effective dose", "setting": "[3]; po, per os, rat, read-out: minimum dose to produce an anti-inflammatory effect in the carragheen-induced edema test", "result": 5, "unit": "mg/kg"},
      {"measurement": "% effect, PAF-acether edema", "setting": "[4]; 25 mg/kg intraperitoneally", "result": 14, "unit": "%"},
      {"measurement": "% effect, PAF-acether edema", "setting": "[4]; 50 mg/kg intraperitoneally", "result": 63, "unit": "%"},
      {"measurement": "% effect, PAF-acether edema", "setting": "[4]; 200 mg/kg intraperitoneally", "result": 73, "unit": "%"},
      {"measurement": "inhibition of vasopermeability (in words)", "setting": "[4]; PAF edema in the rat", "result": "good inhibition of vasopermeability"},
      {"measurement": "LD50", "setting": "[5]", "result": "> 200", "unit": "mg/kg"},
      {"measurement": "cytoprotective effect (in words)", "setting": "[6]", "result": "good cytoprotective effect; also recorded: specific cytoprotective effect"},
      {"measurement": "time after application at which the full effect appears", "setting": "[7]; animal experiments", "result": 0.5, "unit": "h"},
      {"measurement": "effect stronger than that of alpha-lipoic acid by a factor", "setting": "[7]; in vivo", "result": "2-3"},
      {"measurement": "analgesic, anti-inflammatory, anti-arthrotic and cytoprotective effect in further models (in words)", "setting": "[8]", "result": "good analgesic, anti-inflammatory, anti-arthrotic and cytoprotective effect"},
      {"measurement": "inactivation of snake venom (in words)", "setting": "[9]", "result": "inactivates snake venom"}
    ]}
  ]
}
